{"source": "patent US20120184504A1", "about": "“\"The Use of a PAR-1 Antagonist in Combination with a P2Y12 ADP Receptor Antagonist for Inhibition of Thrombosis\"” (priority 2009, published 2012)", "key": {"[1]": {"tested_on": "platelet-dependent thrombus formation (cyclic flow reductions)", "test": "Folts model of thrombosis: cyclic flow reductions (CFRs) in the carotid artery", "assay_type": "in vivo, cynomolgus monkeys", "conditions": "for EC50 (dose regimen needed for 50% reduction in CFRs): from dose-response curve, Inhibitory Effect Emax model", "excerpt": "The procedures used in this study are similar to the acute artery occlusion model developed by Folts and others. (Cook J J, Sitko G R, Bednar B, Condra C, Mellott M J, Feng D M, Nutt R F, Shafer J A, Gould R J, Connolly T M. An antibody against the exosite of the cloned thrombin receptor inhibits experimental arterial thrombosis in the African green monkey. Circulation. 1995; 91:2961-2971. Folts J. An in vivo model of experimental arterial stenosis, intimal damage, and periodic thrombosis. Circulation. 1991; 83(Suppl):IV3-IV14. Mousa S A, DeGrado W F, Mu D X, Kapil R P, Lucchesi B R, Reilly T M. Oral antiplatelet, antithrombotic efficacy of DMP 728, a novel platelet GPIIb/IIIa antagonist. Circulation. 1996; 93:537-543. Wu D, Vanhoorelbeke K, Cauwenberghs N, Meiring M, Depraetere H, Kotze H F, Deckmyn H. Inhibition of the von Willebrand (VWF)-collagen interaction by an antihuman VWF monoclonal antibody results in abolition of in vivo arterial platelet thrombus formation in baboons. Blood. 2002; 99:3623-3628).\nCynomolgus monkeys were sedated with ketamine HCl (10 mg/kg, IM) followed by anesthetization with sodium pentobarbital 20 mg/kg i.v. bolus and an infusion of 5 mg/kg/h i.v. for the duration of the experiment. Body temperature was maintained at 37°-39° C., and fluids infused were warmed to body temperature. The right carotid artery was exposed and dissected free of surrounding tissue, and a transonic flow probe of appropriate size was placed around the vessel. A Lexan constrictor (5 mm length) was placed onto the carotid artery. The constrictor was sized to abolish reactive hyperemia and to reduce mean carotid blood flow by no more than 50%-60%. Mechanical damage to the endothelium was induced in the constricted segment of the artery. Cyclic flow reductions due to platelet-dependent thrombus formation occurred shortly after placement of the constrictor over the region of endothelial damage. These gradual declines in carotid blood flow were occasionally interrupted spontaneously, but frequently required manual restoration by gently shaking the vessel. Flow reductions would typically return in 3-4 minutes. CFR frequency was calculated as the number of such cycles (CFRs) over a 30-minute period. On the basis of pilot studies, CFRs were evaluated in a maximum of four consecutive 30-minute collection periods, and mechanically mediated endothelial injury was performed at 30-minute intervals to ensure exposure of the thrombogenic endothelium.\nAnimals instrumented to produce CFRs were administered SCH 602539, cangrelor, or a combination of SCH 602539 and cangrelor. The dosing regimens of SCH 602539 were selected to provide a broad range of inhibition of platelet aggregation induced by 1 μM thrombin receptor agonist peptide (TRAP), whereas the doses of cangrelor were selected to achieve 50%-60% inhibition of platelet aggregation induced by 10 μM ADP (the degree of inhibition obtained with clopidogrel). Group 1 received drug vehicle only (20% hydroxypropyl betacyclodextran or saline, 2 mL i.v.). Group 2 received SCH 602539 dissolved in 20% hydroxypropyl betacyclodextran administered as sequential i.v. boluses of 0.1, 0.3, or 1 mg/kg, at 30-minute intervals. Group 3 received cangrelor dissolved in saline and administered as an intravenous infusion of 0.1, 0.2, or 0.3 μg/kg/min for 30 minutes each. Group 4 received a combination of SCH 602539 bolus plus cangrelor infusion (at respective doses of: 1) 0.05 mg/kg+0.05 μg/kg/min; 2) 0.1 mg/kg+0.1 μg/kg/min; and 3) 0.15 mg/kg+0.1 μg/kg/min. The three dose regimens within each group were administered sequentially over the consecutive 30-minute periods coinciding with the re-induction of endothelial injury. […]"}, "[2]": {"tested_on": "platelet aggregation induced by collagen (3 μg/mL)", "test": "Ex vivo whole blood platelet aggregation induced by collagen", "assay_type": "in vivo, cynomolgus monkeys", "method": "Animals instrumented to produce CFRs were administered SCH 602539, cangrelor, or a combination of SCH 602539 and cangrelor. The dosing regimens of SCH 602539 were selected to provide a broad range of inhibition of platelet aggregation induced by 1 μM thrombin receptor agonist peptide (TRAP), whereas the doses of cangrelor were selected to achieve 50%-60% inhibition of platelet aggregation induced by 10 μM ADP (the degree of inhibition obtained with clopidogrel). Group 1 received drug vehicle only (20% hydroxypropyl betacyclodextran or saline, 2 mL i.v.). Group 2 received SCH 602539 dissolved in 20% hydroxypropyl betacyclodextran administered as sequential i.v. boluses of 0.1, 0.3, or 1 mg/kg, at 30-minute intervals. Group 3 received cangrelor dissolved in saline and administered as an intravenous infusion of 0.1, 0.2, or 0.3 μg/kg/min for 30 minutes each. Group 4 received a combination of SCH 602539 bolus plus cangrelor infusion (at respective doses of: 1) 0.05 mg/kg+0.05 μg/kg/min; 2) 0.1 mg/kg+0.1 μg/kg/min; and 3) 0.15 mg/kg+0.1 μg/kg/min. The three dose regimens within each group were administered sequentially over the consecutive 30-minute periods coinciding with the re-induction of endothelial injury. Study drug or vehicle was administered after stable CFRs were achieved, and upon the completion of a 30-minute baseline CFR collection period, drug(s) or vehicle were administered incrementally (every 30 minutes) either as a bolus (SCH 602539) or as an infusion (cangrelor), and their effects on CFRs were monitored in the next three 30-minute observation periods. Blood samples (3 mL) were collected from the femoral arterial catheter at the end of each 30-minute observation period for assessment of ex vivo platelet aggregation and coagulation parameters.\nPlatelet aggregation studies were performed ex viva on blood samples obtained from the monkeys subjected to the Folts model, using a ChronoLog whole blood aggregometer (Model 540VS, Havertown, Pa.). Briefly, 0.5 mL of blood was incubated with 0.5 mL of normal saline at 37° C. in a cuvette containing a stir bar for 2 minutes. Platelet agonists used in this study included TRAP (3 μM), ADP (10 μM), the thromboxane A2 mimetic U46619 (10 μM), and collagen (3 μg/mL). Platelet aggregation was monitored for 5 minutes following the addition of the agonist. The peak aggregation response was recorded in ohms. In addition, standard coagulation parameters, including prothrombin time (PT), activated partial thromboplastin time (APTT), and activated clotting time (ACT), were assessed."}}}
{"smiles": "CSCCNc1nc(SCCC(F)(F)F)nc2c1ncn2[C@@H]1O[C@H](COP(=O)(O)OP(=O)(O)C(Cl)(Cl)P(=O)(O)O)[C@@H](O)[C@H]1O", "note": "[Cangrelor]", "values": [{"measurement": "CFRs", "setting": "[1]; Cangrelor 0.1 μg/kg/min i.v. infusion 30 min, per 30-minute period, baseline 9.5 + 0.9", "value": "5.7 + 1.5"}, {"measurement": "CFRs", "setting": "[1]; Cangrelor 0.2 μg/kg/min i.v. infusion 30 min, baseline 9.5 + 0.9", "value": "3.2 + 1.7"}, {"measurement": "CFRs", "setting": "[1]; Cangrelor 0.3 μg/kg/min i.v. infusion 30 min, baseline 9.5 + 0.9", "value": "1.2 + 1.3"}, {"measurement": "CFR frequency reduced from baseline", "setting": "[1]; cangrelor 0.1 μg/kg/min 30-minute infusion", "value": "approximately 40%"}, {"measurement": "CFR frequency reduced from baseline", "setting": "[1]; cangrelor 0.2 μg/kg/min 30-minute infusion, significant versus vehicle", "value": "~70", "unit": "%"}, {"measurement": "CFR frequency reduced from baseline", "setting": "[1]; cangrelor 0.3 μg/kg/min 30-minute infusion, significant versus vehicle", "value": "~90", "unit": "%"}, {"measurement": "animals in which CFRs were completely prevented", "setting": "[1]; cangrelor highest dose (0.3 μg/kg/min)", "value": "5/6"}, {"measurement": "animals in which CFRs were completely prevented", "setting": "[1]; cangrelor intermediate dose (0.2 μg/kg/min)", "value": "3/6"}, {"measurement": "complete suppression of CFRs", "setting": "[1]; cangrelor lowest dose (0.1 μg/kg/min)", "value": "No complete suppression"}, {"measurement": "EC50 (dose regimen needed for 50% reduction in CFRs)", "setting": "[1]; i.v. infusion", "value": "0.099 ± 0.039", "unit": "µg/kg/min"}, {"measurement": "Aggregation, Collagen", "setting": "[2]; Cangrelor 0.1 μg/kg/min, baseline 24 ± 3", "value": "20 ± 3", "unit": "ohms"}, {"measurement": "Aggregation, Collagen", "setting": "[2]; Cangrelor 0.2 μg/kg/min, baseline 24 ± 3", "value": "20 ± 4", "unit": "ohms"}, {"measurement": "Aggregation, Collagen", "setting": "[2]; Cangrelor 0.3 μg/kg/min, baseline 24 ± 3", "value": "20 ± 3", "unit": "ohms"}, {"measurement": "effect on aggregation stimulated by 3 μg/mL collagen", "setting": "[2]; cangrelor 0.2 and 0.3 μg/kg/min", "value": "did not interfere"}, {"measurement": "inhibition of aggregation induced by collagen (discussion)", "setting": "[2]; cangrelor, tested doses", "value": "modest numeric inhibition"}]}
{"smiles": "CCOC(=O)N[C@@H]1CC[C@@H]2[C@@H](C1)C[C@H]1C(=O)O[C@H](C)[C@H]1[C@H]2/C=C/c1ccc(-c2ccccn2)cn1", "note": "[SCH 602539]", "values": [{"measurement": "CFR frequency reduced from baseline", "setting": "[1]; SCH 602539 0.1 mg/kg i.v. bolus", "value": "approximately 50%"}, {"measurement": "CFRs", "setting": "[1]; SCH 602539 0.1 mg/kg i.v. bolus, CFRs per 30-minute period, baseline 8.7 + 0.6", "value": "4.3 + 1.3"}, {"measurement": "animals in which CFRs were completely abolished", "setting": "[1]; SCH 602539 0.3 mg/kg", "value": "4 of 6"}, {"measurement": "CFR frequency reduced from baseline", "setting": "[1]; SCH 602539 0.3 mg/kg i.v. bolus, P<0.05 versus vehicle", "value": "> 80", "unit": "%"}, {"measurement": "CFRs", "setting": "[1]; SCH 602539 0.3 mg/kg i.v. bolus, per 30-minute period, baseline 8.7 + 0.6", "value": "1.7 + 1.2"}, {"measurement": "animals in which CFRs were completely abolished", "setting": "[1]; SCH 602539 1.0 mg/kg", "value": "4 of 6"}, {"measurement": "CFR frequency reduced from baseline", "setting": "[1]; SCH 602539 1.0 mg/kg i.v. bolus, P<0.05 versus vehicle", "value": "> 80", "unit": "%"}, {"measurement": "CFRs", "setting": "[1]; SCH 602539 1.0 mg/kg i.v. bolus, per 30-minute period, baseline 8.7 + 0.6", "value": "1.8 + 1.3"}, {"measurement": "EC50 (dose regimen needed for 50% reduction in CFRs)", "setting": "[1]; i.v. bolus", "value": "0.10 ± 0.042", "unit": "mg/kg"}, {"measurement": "Aggregation, Collagen", "setting": "[2]; SCH 602539 0.1 mg/kg, baseline 27 ± 4", "value": "26 ± 2", "unit": "ohms"}, {"measurement": "effect on aggregation induced by 3 μg/mL collagen", "setting": "[2]; SCH 602539 0.3 mg/kg and 1 mg/kg", "value": "did not affect"}, {"measurement": "Aggregation, Collagen", "setting": "[2]; SCH 602539 0.3 mg/kg, baseline 27 ± 4", "value": "24 ± 3", "unit": "ohms"}, {"measurement": "Aggregation, Collagen", "setting": "[2]; SCH 602539 1.0 mg/kg, baseline 27 ± 4", "value": "29 ± 5", "unit": "ohms"}]}
